# Source: US20230042936A1, “PYRIDO[2,3-d]PYRIMIDIN-7(8H)-ONES AS CDK INHIBITORS” (PROSENESTAR LLC, priority 2020, published 2023)
# Entries after “also recorded” stand apart in the source; their conditions may differ.
# Key:
# [1] = Toxicologic evaluation in vivo; conditions: 50 or 100 mg/kg intraperitoneally twice a week for two weeks; for lung toxicity (hemorrhage in the lungs), mice affected: FIG. 11; for mouse weight: vs DMSO; for mouse weight / blood counts (white blood cells, lymphocytes): FIG. 10
# [2] = test system: human cancer cell lines (MDA-MB-231, U87-MG, H460) and MCF10; experiment: Suppression of proliferation of human cancer cell lines, results in words; format: cell-based; conditions: summary of Table 3
# Procedure: (§1) 48 h later cells were fixed with PFA 4% for 15 minutes, stained with 10 μg/ml Hoechst 33342 (Molecular Probes, Thermo Fisher) for 30 minutes and washed twice with PBS. Cells were imaged in a high content screening system (Opera Phoenix™, Perkin Elmer) using a 20× dry objective (30 fields/well). Cell counts were determined by the Opera software (Perkin Elmer) and data were further processed with SPSS software. GI50 was calculated by estimating the absolute IC50 using dose-response inhibition tool in Prism6 (Graphpad Software Inc.).
# The cell growth inhibitions of the subject compounds were tested in multiple human cancer cell lines with wild-type Retinoblastoma protein: MDA-MB-231 (breast), U87-MG (glioblastoma), H460 (lung); and MCF10 (as an example of non-transformed human cells) and mutant cells.
# [3] = test system: MDA-MB-468 breast carcinoma cell line (pRB mutant); experiment: Proliferation assay: determination of GI50; format: cell-based; conditions: Homo sapiens, Table 4, n = 2, read-out: Growth inhibition GI50, Breast cancer pRB Mutant MDA-MB-468
# Procedure: (§2) The following human tumor cell lines, all Retinoblastoma (Rb)-proficient, were used in this study: MDA-MB231 (breast cancer), MDA-MB453 (breast cancer), U87MG (glioblastoma) and H460 (lung cancer). MDA-MB468 (breast cancer) and SW1783 (glioblastoma) Rb-deficient cells were also included in the study, as well as the MCF10A non-transformed mammary epithelial cell line. Tumor cell lines were maintained in DMEM or RPMI-1640 medium, depending on the cell line, supplemented with 10% FBS. MCF10A cells were grown in complete mammary epithelial growth medium (MEGM, Lonza). Cell lines were authenticated by short tandem repeat (STR) loci profiling with the GenePrint® 10 System (Promega).
# (§3) All human cancer cell lines (Table 2) were obtained from the American Type Culture Collection, and were maintained in DMEM (Hyclone) or RPMI-1640 medium (Sigma) supplemented with 10% fetal bovine serum (Sigma). Non-transformed MCF10 cell line was maintained in MEGM Mammary Epithelial Cell Growth Medium (Lonza). Immortalized mouse embryonic fibroblasts (MEFs) were maintained in DMEM with 10% fetal bovine serum.
# as §1
# [4] = test system: SW1783 glioblastoma cell line (pRB mutant); experiment: Proliferation assay: determination of GI50; format: cell-based; conditions: Homo sapiens, Table 4, n = 4, read-out: Growth inhibition GI50, Glioblastoma pRB Mutant SW1783
# Procedure: as §2, §3, §1
# [5] = Metabolic stability in microsomes; format: in vitro ADME; conditions: human, 60-90 min test; for microsomal CLint: read-out: Metabolic stability, Human microsomes: Clearance; for half-life: read-out: Metabolic stability, Human microsomes: t1/2
# phospho RB1 Ser807/811 = experiment: In vivo target engagement (phospho-RB staining of tissues); parameters: species or system mice; conditions: FIG. 7
# Source text: FIG. 7 depicts the effect of PS004, PS006 and PS009 on the phosphorylation of the retinoblastoma protein in different tissues using antibodies against phospho RB1 Ser807/811. Micrographs are representative from three different mice per treatment.
# (§4) For histological analysis, mice tissues and human xenografts were fixed in 10%-buffered formalin (Sigma) and embedded in paraffin wax. Sections of 3- or 5-μm thickness were stained with haematoxylin and eosin. Additional immunohistochemical examination was performed using a specific antibody against phospho-Rb (Ser807/811; Cell Signaling) or Ki67 (DAKO).
# For in vivo evaluation, the target engagement for the subject compounds in vivo was tested first.
# [6] = test system: MDA-MB-231-derived xenografts; experiment: Tumor xenografts; format: in vivo, Athymic nude mice; conditions: 100 mg/Kg intraperitoneally twice per week, two weeks; for phospho-RB levels in the xenografts: FIG. 9A; for tumor weight / tumor growth: vs DMSO; for tumor weight: FIG. 8A; for tumor growth: FIG. 8B
# Procedure: as §4
# DMSO, PS004, PS006 and PS009 were diluted in sesame oil and administered intraperitoneally twice per week during two weeks at 100 mg/Kg. […] Tumor growth was monitored using caliper measurements and tumor size was estimated using the following formula: Tumor volume (mm^3)=d^2·D/2 where d and D, are the shortest and longest diameter in mm, respectively. After completing the treatment, mice were sacrificed and tumors were extracted, weighed, and fixed for histological analysis.
# The therapeutic effect of the subject compounds was then tested by treating mice previously injected subcutaneously with MDA-MB-231 breast cancer cells. […] The dose amount of 100 mg/kg dosage in these cases was administered at a frequency of two injections per week for the total of two weeks of treatment.
# [7] = test system: pRB-wild-type and pRB-deficient breast cancer cells (MDA-MB-231, MDA-MB-468); experiment: GI50 compared in pRB-wild-type and pRB-deficient cells; format: cell-based, human; conditions: comparison of GI50, Table 4
# Procedure: […]. Cell counts were determined by the Opera software (Perkin Elmer) and data were further processed with SPSS software. GI50 was calculated by estimating the absolute IC50 using dose-response inhibition tool in Prism6 (Graphpad Software Inc.).
# CDK4/6 kinases drive cell cycle progression by phosphorylating the retinoblastoma protein (pRB), thus, releasing its repressive activity on transcription. Accordingly, CDK4/6 specific inhibitors are inefficient in pRB-deficient cells, as cell cycle transcription is induced with independence of CDK4/6 activity. The subject compounds were therefore evaluated to what extent depend on the presence of a functional pRB. Two pairs of human cancer cell lines representing pRB-wild-type and pRB-deficient breast cancer and glioblastoma were tested. […].
# [8] = test system: luminal-like (ZR75-1, T47D, MCF7) and non-luminal (HCC1143, MDA-MB-231, BT549, MDA-MB-468) breast cancer cell lines; experiment: Relative cell growth in a panel of breast cancer cell lines (6 days); format: cell-based, human; conditions: 6 days at GI50 dose (determined in MDA-MB-231); FIG. 5
# Procedure: Data are mean±s.e.m. (3 technical replicates).
# Relative cell proliferation was calculated by counting cell number at day 6 in treated cells versus cells treated with vehicle (DMSO).
# [9] = test system: pRB phosphorylation and cell cycle markers in MDA-MB-231 and MDA-MB-468 cells; experiment: Immunoblotting of cell cycle markers; format: cell-based, human; conditions: GI50 dose, 48 hours; FIG. 6
# Procedure: MDA-MB-231 and MDA-MB-468 cells were treated with the indicated compounds using the G150 corresponding to the MDA-MB-231 cell line, and 48 hours later lysed in Laemmli buffer (60 mM Tris-Cl pH 6.8, 10% Glycerol, 2% SDS). Protein concentration was determined using BCA method (Pierce).
SMILES,histopathology of the bone marrow [1],histopathology of the intestine [1],histopathology of the spleen [1],"lung toxicity (hemorrhage in the lungs), mice affected [1]",mouse weight [1],suppression of cell proliferation [2],GI50 [3] [µM],GI50 [4] [µM],microsomal CLint [5] [µL/min/mg],half-life [5] [min],"phospho-RB staining in bone marrow, intestine and spleen (phospho RB1 Ser807/811)",phospho-RB levels in the xenografts [6],Ki67 levels in the xenografts ([6]; FIG. 9B),tumor weight [6],tumor growth [6],"blood counts (white blood cells, lymphocytes) [1]",efficiency in pRB-null versus pRB-wild-type breast cancer cells [7],"relative cell growth, luminal-like and non-luminal breast cancer cell lines [8]",levels of cell cycle markers [9],pRB phosphorylation [9]
"O=c1ccc2cnc(Nc3ccc(N4CCC(CCCO)CC4)cc3)nc2n1C1CC2CCC1C2 (centres unmarked) [PD-0183812, reference compound]",hypoplasia/reactive bone marrow,aberrant mitotic figures,active extramedullar hematopoiesis,6 out of 6,induced significant weight loss,–,–,–,–,–,–,–,–,–,–,–,–,–,–,–
"O=c1ccc2cnc(Nc3ccc(N4CCC(CCCO)CC4)cc3F)nc2n1[C@@H]1CC2CCC1C2 (stereo partly drawn) [PS002, 8-((2R)-bicyclo[2.2.1]heptan-2-yl)-2-((2-fluoro-4-(4-(3-hydroxypropyl)piperidin-1-yl)phenyl)amino)pyrido[2,3-d]pyrimidin-7(8H)-one]",–,–,–,–,–,exception,–,–,–,–,–,–,–,–,–,–,–,–,–,–
"CC(O)CCC1CCN(c2ccc(Nc3ncc4ccc(=O)n([C@@H]5CC6CCC5C6)c4n3)cc2)CC1 (stereo partly drawn) [PS004, 8-((2R)-bicyclo[2.2.1]heptan-2-yl)-2-((4-(4-(3-hydroxybutyl)piperidin-1-yl)phenyl)amino)pyrido[2,3-d]pyrimidin-7(8H)-one]",hypoplasia/reactive bone marrow,aberrant mitotic figures,active extramedullar hematopoiesis,4 out of 6,–,inhibited cell growth with high potential,3,11.5,40.8,34,evident RB target inhibition,reduction of phospho-Rb phosphorylation which however did not reach statistical significance,slightly diminished,significantly reduced,significantly reduced,reduced lymphocyte counts,–,–,–,–
"CC(O)COC1CCN(c2ccc(Nc3ncc4ccc(=O)n([C@@H]5CC6CCC5C6)c4n3)cc2)CC1 (stereo partly drawn) [PS006, 8-((2R)-bicyclo[2.2.1]heptan-2-yl)-2-((4-(4-(2-hydroxypropoxy)piperidin-1-yl)phenyl)amino)pyrido[2,3-d]pyrimidin-7(8H)-one]",–,–,active extramedullar hematopoiesis,1 out of 6,–,potent cell growth inhibition,2.5,2.2,119,11.6,–,significantly reduced,–,did not exert any antitumoral effect,did not exert any antitumoral effect,–,equally efficient,–,–,–
"CC(=O)c1c(C)c2cnc(Nc3ccc(N4CCC(CCCO)CC4)cc3)nc2n(C2CCCC2)c1=O [PS009, 6-acetyl-8-cyclopentyl-2-((4-(4-(3-hydroxypropyl)piperidin-1-yl)phenyl)amino)-5-methylpyrido[2,3-d]pyrimidin-7(8H)-one]",–,–,–,1 out of 6,induced weight loss,–,3.9,8,33,42,evident RB target inhibition,reduction of phospho-Rb phosphorylation which however did not reach statistical significance,–,did not exert any antitumoral effect,did not exert any antitumoral effect,no defects in blood counts,equally efficient,"efficient in both pRB-wild-type and mutant cell lines; also recorded: efficiently inhibit both luminal and non-luminal breast cancer cells; also recorded: able to inhibit proliferation in non-luminal, pRB-mutant breast cancer cells lines",reduced levels of most cell cycle markers,strong inhibition
